# Measured values as given in PMC7354843 (Journal of medicinal chemistry, 2020).
# Assay: In vivo pharmacokinetic study, plasma and liver, single oral dose in mice
# Conditions: male, ICR, mouse, plasma, 80 mg/kg
structure (smiles),measurement,value
"O=c1c2ccc(Oc3ccc(OC(F)(F)F)cc3)cc2[nH]c2cc(Cl)cc(F)c12 [Compound 26, 3-Chloro-1-fluoro-6-(4-(trifluoromethoxy)phenoxy)acridin-9(10H)-one]",AUC(0-inf),508 ng·h/mL
same,Cmax,17.2 ng/mL
